The values below come from patent publication US20250179079A1, “HEXAHYDROPYRIDO[4,3-B]INDOLYL KETONE DERIVATIVES USEFUL AS CGAS MODULATORS” (Ventus Therapeutics U.S., Inc., priority 2022, published 2025).

Each structure is given as a SMILES string. Like-named read-outs stand apart in the source and are kept apart here.

This assay has as its target h-cGAS (Homo sapiens (Human), UniProt Q8N884). As to the kind of experiment: hcGAS Kinase-Glo assay. Format: biochemical. On the technique in general: Kinase-Glo measures the ATP left after a reaction by luminescence.
The mark [1] stands for this setting: Table C, IC50 range designation, read-out: hcGAS IC50.
[2] abbreviates: Table C, raw data in parentheses, read-out: hcGAS IC50.

h-cGAS, sequence (Q8N884 whole entry): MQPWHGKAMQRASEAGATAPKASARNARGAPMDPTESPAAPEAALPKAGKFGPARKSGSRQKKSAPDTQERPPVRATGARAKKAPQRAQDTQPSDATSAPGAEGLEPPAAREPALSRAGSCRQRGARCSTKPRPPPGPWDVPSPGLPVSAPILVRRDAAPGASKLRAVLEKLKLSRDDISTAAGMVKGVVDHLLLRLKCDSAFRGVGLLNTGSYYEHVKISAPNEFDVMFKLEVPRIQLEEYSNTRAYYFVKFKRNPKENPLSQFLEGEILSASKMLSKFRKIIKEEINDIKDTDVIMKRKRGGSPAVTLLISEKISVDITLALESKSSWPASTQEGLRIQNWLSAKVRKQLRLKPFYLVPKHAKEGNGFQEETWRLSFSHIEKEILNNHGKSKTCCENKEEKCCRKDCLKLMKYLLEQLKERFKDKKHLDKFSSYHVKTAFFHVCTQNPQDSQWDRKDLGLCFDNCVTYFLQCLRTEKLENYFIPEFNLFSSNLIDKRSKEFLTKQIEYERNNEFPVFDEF

Turning to `NC(=O)C(=O)N1CCc2[nH]c3c(Cl)c(Cl)ccc3c2C1` [Compound 57, 2-(6,7-dichloro-1,3,4,5-tetrahydro-2H-pyrido[4,3-b]indol-2-yl)-2-oxoacetamide], the IC50 was 1 to 5 µM under setting [1], 4.21 µM under setting [2] and 1 to 5 µM (read-out: hcGAS activity).

As for `C[C@H]1c2c3c(-c4ccn(C)n4)cc(Cl)c(Cl)c3nn2CCN1C(=O)CO` (single isomer, unassigned) [61B*], the IC50 reads like this: under setting [1], less than 0.1 µM; under setting [2], 0.0599 µM.

Take `O=C(c1ncc(N2CCOCC2)cn1)N1CCc2[nH]c3c(Cl)c(Cl)ccc3c2C1` [Compound 31, (6,7-dichloro-1,3,4,5-tetrahydro-2H-pyrido[4,3-b]indol-2-yl)(5-morpholinopyrimidin-2-yl)methanone]: the IC50 is, setting by setting: under setting [1], 0.1 to 0.5 µM; under setting [2], 0.222 µM; (read-out: hcGAS activity) 0.1 to 0.5 µM.

`C[C@@H]1c2c3c(-c4ccn(C)n4)cc(Cl)c(Cl)c3nn2CCN1C(=O)CO` (single isomer, unassigned) [61A*]: the IC50 was greater than 5 µM under setting [1] and greater than 10 µM under setting [2].

As to `CC1c2c([nH]c3c(Cl)c(Cl)ccc23)CCN1C(=O)c1ncc(N2CCN(C)CC2)cn1` (racemic) [Rac-48, (6,7-dichloro-1-methyl-1,3,4,5-tetrahydro-2H-pyrido[4,3-b]indol-2-yl)(5-(4-methylpiperazin-1-yl)pyrimidin-2-yl)methanone], under setting [2], the IC50 is 0.052 µM.

Take `COc1cnc(C(=O)N2CCn3nc4c(Cl)c(Cl)ccc4c3[C@H]2C)nc1` (single isomer, unassigned) [52A*]: the IC50 is greater than 5 µM under setting [1] and greater than 10 µM under setting [2].

With `O=C(c1nnn[nH]1)N1CCc2[nH]c3c(Cl)c(Cl)ccc3c2C1` [Compound 7, (6,7-dichloro-1,3,4,5-tetrahydro-2H-pyrido[4,3-b]indol-2-yl)(1H-tetrazol-5-yl)methanone], the IC50 is, setting by setting: under setting [1], 1 to 5 µM; under setting [2], 3.3 µM; (read-out: hcGAS activity) 1 to 5 µM.

Regarding `CC1c2c([nH]c3c(Cl)c(Cl)ccc23)CCN1C(=O)c1ncc(N2CCN(C3COC3)CC2)cn1` (racemic) [Rac-49, (6,7-dichloro-1-methyl-1,3,4,5-tetrahydro-2H-pyrido[4,3-b]indol-2-yl)(5-(4-(oxetan-3-yl)piperazin-1-yl)pyrimidin-2-yl)methanone], the IC50 under setting [2] came out at 0.102 µM.

Consider `COCCOCn1c2c(c3ccc(Cl)c(Cl)c31)CN(C(=O)c1ncc(OC)cn1)CC2` [Compound 23, (6,7-dichloro-5-((2-methoxyethoxy)methyl)-1,3,4,5-tetrahydro-2H-pyrido[4,3-b]indol-2-yl)(5-methoxypyrimidin-2-yl)methanone], for which the IC50 under setting [1] was in the range of 1 to 5 µM, the IC50 under setting [2] came to 2.25 µM and the IC50 (read-out: hcGAS activity) lay in the range of 1 to 5 µM.

For `CC1c2c([nH]c3c(Cl)c(Cl)ccc23)CCN1C(=O)c1ncc(N2CCOCC2)cn1` (racemic) [Rac-44, (6,7-dichloro-1-methyl-1,3,4,5-tetrahydro-2H-pyrido[4,3-b]indol-2-yl)(5-morpholinopyrimidin-2-yl)methanone], the IC50 by setting is: under setting [2], 0.0685 µM; (read-out: hcGAS activity) less than 0.1 µM.

For the compound `Nc1ccnc(C(=O)N2CCc3[nH]c4c(Cl)c(Cl)ccc4c3C2)n1` [Compound 14, (4-aminopyrimidin-2-yl)(6,7-dichloro-1,3,4,5-tetrahydro-2H-pyrido[4,3-b]indol-2-yl)methanone], the IC50 is 1 to 5 µM under setting [1], 1.52 µM under setting [2] and 1 to 5 µM (read-out: hcGAS activity).

For the compound `NCC(=O)N1C2COCC1c1c([nH]c3c(Cl)c(Cl)ccc13)C2` (centres unmarked) [Compound 66, 2-amino-1-(8,9-dichloro-1,2,4,5,6,7-hexahydro-1,5-epiminooxocino[5,4-b]indol-12-yl)ethan-1-one], the IC50 was 0.1 to 0.5 µM under setting [1], 0.314 µM under setting [2] and 0.1 to 0.5 µM (read-out: hcGAS activity).

As to `CC1c2c([nH]c3c(Cl)c(Cl)ccc23)CCN1C(=O)c1ncc(N2CCN3CC(F)(F)C[C@H]3C2)cn1` (mixture of isomers) [Rac-50, (6,7-dichloro-1-methyl-1,3,4,5-tetrahydro-2H-pyrido[4,3-b]indol-2-yl)(5-((S)-7,7-difluorohexahydropyrrolo[1,2-a]pyrazin-2(1H)-yl)pyrimidin-2-yl)methanone], the IC50 under setting [2] was 0.0895 µM.

In the case of `CC1c2c([nH]c3c(Cl)c(Cl)ccc23)CCN1C(=O)c1ncc(N(C)CCN(C)C)cn1` (racemic) [Rac-47, (6,7-dichloro-1-methyl-1,3,4,5-tetrahydro-2H-pyrido[4,3-b]indol-2-yl)(5-((2-(dimethylamino)ethyl)(methyl)amino)pyrimidin-2-yl)methanone], the IC50 under setting [2] was determined as 0.0501 µM.

With `Cn1cnc(C(=O)N2CCc3[nH]c4c(Cl)c(Cl)ccc4c3C2)n1` [Compound 9, (6,7-dichloro-1,3,4,5-tetrahydro-2H-pyrido[4,3-b]indol-2-yl)(1-methyl-1H-1,2,4-triazol-3-yl)methanone], the IC50 is, setting by setting: under setting [1], 1 to 5 µM; under setting [2], 1.07 µM; (read-out: hcGAS activity) 1 to 5 µM.

Turning to `COCCNCC(=O)N1CCc2[nH]c3c(Cl)c(Cl)ccc3c2C1` [Compound 69, 1-(6,7-dichloro-1,3,4,5-tetrahydro-2H-pyrido[4,3-b]indol-2-yl)-2-((2-methoxyethyl)amino)ethan-1-one], the IC50 under setting [1] is 0.5 to 1 µM, the IC50 under setting [2] is 0.678 µM and the IC50 (read-out: hcGAS activity) was in the range of 1 to 5 µM.

`Cc1cnc(C(=O)N2CCc3[nH]c4c(Cl)c(Cl)ccc4c3C2)[nH]1` [Compound 10, (6,7-dichloro-1,3,4,5-tetrahydro-2H-pyrido[4,3-b]indol-2-yl)(5-methyl-1H-imidazol-2-yl)methanone]: the IC50 is, setting by setting: under setting [1], 1 to 5 µM; under setting [2], 3.22 µM; (read-out: hcGAS activity) 1 to 5 µM.

For `CC1c2c([nH]c3c(Cl)c(Cl)ccc23)CCN1C(=O)c1nccc(OCCO)n1` (racemic) [Rac-70, (6,7-dichloro-1-methyl-1,3,4,5-tetrahydro-2H-pyrido[4,3-b]indol-2-yl)(4-(2-hydroxyethoxy)pyrimidin-2-yl)methanone], the IC50 is, setting by setting: under setting [2], 0.0787 µM; (read-out: hcGAS activity) less than 0.1 µM.

With `C[C@H]1c2c([nH]c3c(Cl)c(Cl)ccc23)CCN1C(=O)c1ncc(C#N)[nH]1` (single isomer, unassigned) [95B*], the IC50 under setting [2] turned out to be 0.587 µM.

As to `C[C@H]1c2c([nH]c3c(Cl)c(Cl)ccc23)CCN1C(=O)CN` (single isomer, unassigned) [51B*], the IC50 was less than 0.1 µM under setting [1] and 0.0178 µM under setting [2].

With `COc1cnc(C(=O)N2CCc3[nH]c4c(Cl)c(Cl)ccc4c3C2C)nc1OC` (racemic) [Rac-83, (6,7-dichloro-1-methyl-1,3,4,5-tetrahydro-2H-pyrido[4,3-b]indol-2-yl)(4,5-dimethoxypyrimidin-2-yl)methanone], the IC50 under setting [2] came to 0.206 µM.

On to `COc1cnc(C(=O)N2CCc3[nH]c4c(Cl)c(Cl)cc(OC)c4c3C2C)nc1` (racemic) [Rac-132, (6,7-dichloro-9-methoxy-1-methyl-1,3,4,5-tetrahydro-2H-pyrido[4,3-b]indol-2-yl)(5-methoxypyrimidin-2-yl)methanone], for which the IC50 under setting [2] was 0.0455 µM.

As to `COc1cnc(C(=O)N2CCn3nc4c(Cl)c(Cl)ccc4c3[C@@H]2C)nc1` (single isomer, unassigned) [52B*], the IC50 was less than 0.1 µM under setting [1] and 0.0715 µM under setting [2].

For the compound `COc1ccnc(C(=O)N2CCc3[nH]c4c(Cl)c(Cl)ccc4c3C2C)n1` (racemic) [Rac-68, (6,7-dichloro-1-methyl-1,3,4,5-tetrahydro-2H-pyrido[4,3-b]indol-2-yl)(4-methoxypyrimidin-2-yl)methanone], the IC50 was 0.0945 µM under setting [2] and less than 0.1 µM (read-out: hcGAS activity).

With `CC1c2c([nH]c3c(Cl)c(Cl)ccc23)CCN1C(=O)CN` (racemic) [Rac-51, 2-amino-1-(6,7-dichloro-1-methyl-1,3,4,5-tetrahydro-2H-pyrido[4,3-b]indol-2-yl)ethan-1-one], the IC50 under setting [2] was 0.0377 µM.

On to `CC1c2c([nH]c3c(Cl)c(Cl)ccc23)CCN1C(=O)c1nccc(OCCN(C)C)n1` (racemic) [Rac-88, (6,7-dichloro-1-methyl-1,3,4,5-tetrahydro-2H-pyrido[4,3-b]indol-2-yl)(4-(2-(dimethylamino)ethoxy)pyrimidin-2-yl)methanone], for which, under setting [2], the IC50 stood at 0.11 µM.

On to `COc1cnc(C(=O)N2CCc3[nH]c4c(Cl)c(Cl)cc(C)c4c3C2C)nc1` (racemic) [Rac-103, (6,7-dichloro-1,9-dimethyl-1,3,4,5-tetrahydro-2H-pyrido[4,3-b]indol-2-yl)(5-methoxypyrimidin-2-yl)methanone], for which the IC50 under setting [2] stood at 0.115 µM.

For `NNC(=O)N1CCc2[nH]c3c(Cl)c(Cl)ccc3c2C1` [Compound 59, 6,7-dichloro-1,3,4,5-tetrahydro-2H-pyrido[4,3-b]indole-2-carbohydrazide], the IC50 runs as follows: under setting [1], 0.1 to 0.5 µM; under setting [2], 0.62 µM; (read-out: hcGAS activity) 0.1 to 0.5 µM.

Turning to `COCCOc1ccnc(C(=O)N2CCc3[nH]c4c(Cl)c(Cl)ccc4c3C2C)n1` (racemic) [Rac-67, (6,7-dichloro-1-methyl-1,3,4,5-tetrahydro-2H-pyrido[4,3-b]indol-2-yl)(4-(2-methoxyethoxy)pyrimidin-2-yl)methanone], the IC50 was 0.251 µM under setting [2] and less than 0.1 µM (read-out: hcGAS activity).

`O=C(c1ncc(F)cn1)N1CCc2[nH]c3c(Cl)c(Cl)ccc3c2C1` [Compound 15, (6,7-dichloro-1,3,4,5-tetrahydro-2H-pyrido[4,3-b]indol-2-yl)(5-fluoropyrimidin-2-yl)methanone]: the IC50 was 0.5 to 1 µM under setting [1], 0.842 µM under setting [2] and 0.5 to 1 µM (read-out: hcGAS activity).

`CONC(=O)N1CCc2[nH]c3c(Cl)c(Cl)ccc3c2C1C` (racemic) [Rac-98, 6,7-dichloro-N-methoxy-1-methyl-1,3,4,5-tetrahydro-2H-pyrido[4,3-b]indole-2-carboxamide]: the IC50 under setting [2] was determined as 1.32 µM.

As to `O=C(c1ncc[nH]1)N1CCc2[nH]c3c(Cl)c(Cl)ccc3c2C1` [Compound 5, (6,7-dichloro-1,3,4,5-tetrahydro-2H-pyrido[4,3-b]indol-2-yl)(1H-imidazol-2-yl)methanone], the IC50 reads like this: under setting [1], 0.5 to 1 µM; under setting [2], 0.878 µM; (read-out: hcGAS activity) 0.5 to 1 µM.
